Reference: PMC9496321, “6-Furopyridine Hexamethylene Amiloride Is a Non-Selective P2X7 Receptor Antagonist” (Biomolecules, 2022)

How the values were obtained:
[1] = biological target: T1, endogenous hP2X7 (Homo sapiens, UniProt Q99572); experiment: ATP-induced ethidium+ uptake in RPMI8226 multiple myeloma cells (flow cytometry); type: cell-based
T1 construct: endogenous in cells; host or cells: RPMI8226 cells
T1 sequence (Q99572 1-595): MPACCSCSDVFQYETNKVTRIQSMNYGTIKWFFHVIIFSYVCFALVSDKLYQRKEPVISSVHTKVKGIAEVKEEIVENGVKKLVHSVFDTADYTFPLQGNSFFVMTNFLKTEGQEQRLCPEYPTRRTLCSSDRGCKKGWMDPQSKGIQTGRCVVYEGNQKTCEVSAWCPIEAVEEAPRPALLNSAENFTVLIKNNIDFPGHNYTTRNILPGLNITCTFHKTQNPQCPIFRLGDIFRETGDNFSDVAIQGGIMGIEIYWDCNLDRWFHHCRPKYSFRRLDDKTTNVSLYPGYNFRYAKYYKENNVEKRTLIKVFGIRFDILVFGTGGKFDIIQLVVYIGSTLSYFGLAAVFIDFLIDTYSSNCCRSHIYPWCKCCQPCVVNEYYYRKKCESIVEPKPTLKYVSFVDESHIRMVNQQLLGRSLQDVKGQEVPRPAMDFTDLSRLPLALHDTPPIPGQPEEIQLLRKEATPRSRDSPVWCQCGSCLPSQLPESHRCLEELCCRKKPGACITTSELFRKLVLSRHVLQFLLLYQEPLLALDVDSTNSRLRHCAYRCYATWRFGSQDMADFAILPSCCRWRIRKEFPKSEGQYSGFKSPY

[2] = biological target: T2, hP2X7 (Homo sapiens, UniProt Q99572); experiment: ATP-induced ethidium+ uptake in stably transfected HEK-hP2X7 cells (flow cytometry); type: cell-based; conditions: for EC50: EC50 of ATP; for maximum ATP response, ethidium+ uptake: increasing ATP
T2 construct: expressed in transfected cells; host or cells: HEK293 cells, stably transfected (HEK-hP2X7)
T2 sequence (Q99572 1-595): T1 sequence (Q99572 1-595)

[3] = biological target: T2, hP2X7; experiment: Fura-2AM Ca2+ response assay in HEK-hP2X7 cells; type: cell-based; conditions: for EC50: EC50 of ATP; for maximum ATP response, Ca2+: increasing ATP
[4] = system: P2X7-mediated CD23 shedding; experiment: CD23 shedding assay in RPMI8226 cells; type: cell-based, human
Procedure: CD23 shedding from RPMI8226 cells was conducted as described, except using LDM. Briefly, 1 × 10^6 cells in LDM were added to individual tubes and pre-incubated in the absence or presence of compound (or vehicle) (37 °C, 15 min). […] Cells were stained in the absence or presence of anti-CD23 mAb with 7AAD (on ice, 30 min, dark), washed once with D-PBS and data were collected using an LSR Fortessa X-20 flow cytometer. CD23 MFI on live cells was determined using FlowJo, with CD23 expression defined as the difference in MFI between cells stained in the presence or absence of anti-CD23 mAb. ATP-induced shedding was normalised to the maximal ATP-induced response in each experiment.

[5] = system: endogenous hP2Y receptors, including hP2Y1, hP2Y2 and hP2Y4; experiment: Fura-2AM Ca2+ response assay in non-transfected HEK293 cells; type: cell-based, human
Procedure: Ca^2+ response assays were conducted as described. Briefly, HEK293, HEK-hP2X7 or HEK-hP2X4 cells were harvested and plated in black, clear-bottom 96-well plates at 5 × 10^4 cells/well overnight (37 °C, 95% air/5% CO2). Cells were washed with extracellular Ca^2+ solution (ECS) (145 mM NaCl, 2 mM CaCl2, 5 mM KCl, 13 mM glucose and 10 mM HEPES, pH 7.4) and incubated with Fura-2AM loading buffer (2.5 μM Fura-2AM and 0.2% pluronic acid in ECS) (37 °C, 95% air/5% CO2, 30 min, dark). Loading buffer was removed; cells were washed once with ECS and incubated in ECS (37 °C, 95% air/5% CO2, 20 min, dark) to allow Fura-2AM de-esterification. Where indicated, cells were pre-incubated with compound or vehicle (DMSO) (37 °C, 30 min, dark). Fura-2 fluorescence at 510 nm was measured every 5 s using a FlexStation 3 (Molecular Devices, San Jose, CA, USA). […] Data was acquired using SoftMax Pro version 7.0 (Molecular Devices). Relative changes in intracellular Ca^2+ were calculated using the ratio of Fura-2AM fluorescence at 510 nm following excitation at 340 nm and 380 nm (F340nm/380nm). […] Ca^2+ responses over time were plotted in Prism software v8.4.2 (GraphPad Software, La Jolla, CA, USA). To determine relative P2X-mediated Ca^2+ responses, the area under the curve from 100 to 180 s was calculated with GraphPad Prism. To determine P2Y-mediated Ca^2+ responses the area under the curve from 30 to 100 s was calculated. In both cases, ATP-induced responses were calculated by subtracting the corresponding basal response. These responses were normalised to the maximal ATP-induced response within their respective experiment.

[6] = read-out: IC50, hP2X7-mediated dye uptake

Nc1ncnc2c1ncn2[C@@H]1O[C@H](COP(=O)(O)OP(=O)(O)OP(=O)(O)O)[C@@H](O)[C@H]1O [ATP, adenosine 5′-triphosphate]
EC50 ([1]; RPMI8226 cells, no antagonist): 311 ± 21 µM | EC50 ([2]; ethidium+ uptake, HEK-hP2X7 cells, no antagonist (Figure 2C)): 466 ± 17 µM | EC50 ([2]; ethidium+ uptake, in presence of 0.3 μM 6-FPHMA): 464 ± 52 µM | EC50 ([2]; ethidium+ uptake, in presence of 3 μM 6-FPHMA): 517 ± 49 µM | EC50 ([2]; ethidium+ uptake, in presence of 30 μM 6-FPHMA): 557 ± 47 µM | EC50 ([2]; ethidium+ uptake, pre-incubated with DMSO vehicle (Figure 2E)): 419 ± 24 µM | EC50 ([3]; Ca2+ response, HEK-hP2X7 cells, no antagonist (Figure 2F), AUC 100-180 s): 722 ± 76 µM | EC50 ([3]; Ca2+ response, in presence of 0.3 μM 6-FPHMA): 526 ± 131 µM | EC50 ([3]; Ca2+ response, in presence of 3 μM 6-FPHMA): 857 ± 317 µM | EC50 ([3]; Ca2+ response, in presence of 30 μM 6-FPHMA): 691 ± 151 µM | EC50 ([3]; Ca2+ response, pre-incubated with DMSO vehicle (Figure 2H)): 526 ± 127 µM | EC50 ([4]; Homo sapiens, RPMI-8226, read-out: EC50 of ATP, CD23 shedding, RPMI8226 cells): 112 ± 28 µM | ATP concentration giving maximal CD23 shedding ([4]; RPMI8226 cells): 200 µM | ATP concentration giving maximum Ca2+ response ([5]; HEK293 cells): 300 µM | EC50 ([5]; read-out: EC50 of ATP, Ca2+ response, HEK293 cells, AUC 30-100 s): 2.5 ± 1.01 µM

N=C(N)NC(=O)c1nc(-c2cc3cnccc3o2)c(N2CCCCCC2)nc1N [6-FPHMA, 6-furopyridine-substituted 5-(N,N-hexamethylene) amiloride]
blockade of hP2X7-mediated dye uptake ([1]; 30 μM compound, 300 μM ATP, RPMI8226 cells): 100% | IC50 [1, 6]: 0.58 ± 0.05 µM | maximum ATP response, ethidium+ uptake ([2]; 0.3 μM 6-FPHMA): 90 ± 4% | maximum ATP response, ethidium+ uptake ([2]; 3 μM 6-FPHMA): 52 ± 3% | maximum ATP response, ethidium+ uptake ([2]; 30 μM 6-FPHMA): 13 ± 1% | blockade of hP2X7-mediated dye uptake ([2]; 100 μM compound, 450 μM ATP, HEK-hP2X7 cells): 95% | mode of inhibition ([2]; ethidium+ uptake, HEK-hP2X7 cells): non-competitive | IC50 [2, 6]: 1.63 ± 0.42 µM | maximum ATP response, Ca2+ ([3]; 0.3 μM 6-FPHMA): 54 ± 7% | maximum ATP response, Ca2+ ([3]; 3 μM 6-FPHMA): 43 ± 6% | maximum ATP response, Ca2+ ([3]; 30 μM 6-FPHMA): 5 ± 1% | blockade of hP2X7-mediated Ca2+ responses ([3]; 30 μM compound, 720 μM ATP): 100% | mode of inhibition ([3]; Ca2+ response, HEK-hP2X7 cells): non-competitive | IC50 ([3]; read-out: IC50, hP2X7-mediated Ca2+ responses): 0.46 ± 0.14 µM | blockade of ATP-induced CD23 shedding ([4]; 30 μM compound, 200 μM ATP): 97% | IC50 ([4]; Homo sapiens, RPMI-8226, read-out: IC50, ATP-induced CD23 shedding): 2.3 ± 0.5 µM | IC50 ([5]; 2.5 μM ATP, AUC 30-100 s, read-out: IC50, endogenous hP2Y-mediated Ca2+ responses): 0.33 ± 0.13 µM | inhibition of hP2Y-mediated Ca2+ responses ([5]; 30 μM compound, 2.5 μM ATP): 97%
